Laboratory results: ChEMBL document CHEMBL1201862, “PubChem BioAssay data set” (2004)
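Growth conditions: 96-well plates. Treatment: test compound, 48 hours, 5 concentrations. Analysis: linear interpolation between bracketing concentrations; unreached endpoints set to highest concentration. Here, GI50 denotes the concentration required for 50% inhibition of growth.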 Activity calls are given as the source filed them. No stated cut-off is given here; in the data, active = GI50 up to about 1.1 µM and inactive = higher.

Columns and labels:
Experiment in all cases: NCI anticancer screen, dose series, 48 h
EKVX = system: EKVX
MDA-MB-435 = system: MDA-MB-435
HCT-116 = system: HCT-116
HCT-15 = system: HCT-15
T47D = system: T47D
COLO 205 = system: COLO 205
NCI-H522 = system: NCI-H522
MOLT-4 = system: MOLT-4
HOP-92 = system: HOP-92
LOX IMVI = system: LOX IMVI
OVCAR-4 = system: OVCAR-4
CAKI-1 = system: CAKI-1
SF-295 = system: SF-295
OVCAR-5 = system: OVCAR-5
SF-539 = system: SF-539
786-0 = system: 786-0
OVCAR-8 = system: OVCAR-8
MCF7 = system: MCF7
SNB-75 = system: SNB-75
SK-MEL-5 = system: SK-MEL-5

Compound | GI50 (EKVX) | GI50 (MDA-MB-435) | GI50 (HCT-116) | GI50 (HCT-15) [µM] | GI50 (T47D) | GI50 (COLO 205) | GI50 (NCI-H522) | GI50 (MOLT-4) | GI50 (HOP-92) | GI50 (LOX IMVI) | GI50 (OVCAR-4) | GI50 (CAKI-1) | GI50 (SF-295) | GI50 (OVCAR-5) | GI50 (SF-539) | GI50 (786-0) | GI50 (OVCAR-8) | GI50 (MCF7) | GI50 (SNB-75) | GI50 (SK-MEL-5)
Cc1cnc2nc(-c3ccc(Cl)cc3)cc(O)c2c1 | 18.5 µM (inactive) | 0.47 µM (active) | 3.84 µM (inactive) | 2.07 | 43 µM (inactive) | 4.31 µM (inactive) | 5.47 µM (inactive) | 3.31 µM (inactive) | 2.32 µM (inactive) | 4.63 µM (inactive) | 19.1 µM (inactive) | 5.33 µM (inactive) | 3.55 µM (inactive) | 11.1 µM (inactive) | 2.37 µM (inactive) | 6.17 µM (inactive) | 9.14 µM (inactive) | 4.48 µM (inactive) | 5.14 µM (inactive) | 2.49 µM (inactive)
CC1CC(C)C(O)C(C2CC(CC(=O)NC3CCCCC3)CC(=O)O2)C1 (stereo not given) | > 100 µM (inactive) | > 100 µM (inactive) | > 100 µM (inactive) | > 100 | > 100 µM (inactive) | > 100 µM (inactive) | > 100 µM (inactive) | > 100 µM (inactive) | > 100 µM (inactive) | > 100 µM (inactive) | > 100 µM (inactive) | > 100 µM (inactive) | > 100 µM (inactive) | > 100 µM (inactive) | > 100 µM (inactive) | > 100 µM (inactive) | > 100 µM (inactive) | > 100 µM (inactive) | > 100 µM (inactive) | > 100 µM (inactive)
C=O.NNCCc1n[nH]c(=O)n1N | > 100 µM (inactive) | > 100 µM (inactive) | > 100 µM (inactive) | > 100 | > 100 µM (inactive) | > 100 µM (inactive) | > 100 µM (inactive) | > 100 µM (inactive) | > 100 µM (inactive) | > 100 µM (inactive) | > 100 µM (inactive) | > 100 µM (inactive) | > 100 µM (inactive) | > 100 µM (inactive) | > 100 µM (inactive) | > 100 µM (inactive) | > 100 µM (inactive) | > 100 µM (inactive) | 97.7 µM (inactive) | > 100 µM (inactive)
O=C(NCCCCCCNC(=O)c1cccc2ccccc12)Nc1cccc2ccccc12 | > 100 µM (inactive) | > 100 µM (inactive) | > 100 µM (inactive) | > 100 | > 100 µM (inactive) | > 100 µM (inactive) | > 100 µM (inactive) | > 100 µM (inactive) | > 100 µM (inactive) | > 100 µM (inactive) | > 100 µM (inactive) | > 100 µM (inactive) | > 100 µM (inactive) | > 100 µM (inactive) | > 100 µM (inactive) | > 100 µM (inactive) | > 100 µM (inactive) | > 100 µM (inactive) | > 100 µM (inactive) | > 100 µM (inactive)
CC(C)(C)OC(=O)N1C(C2=COc3ccccc3O2)=COc2cccnc21 | 1.38 µM (inactive) | 1.74 µM (inactive) | 1.99 µM (inactive) | 1.77 | 1.42 µM (inactive) | 1.9 µM (inactive) | 1.61 µM (inactive) | 2.06 µM (inactive) | 1.25 µM (inactive) | 1.74 µM (inactive) | 1.6 µM (inactive) | 2.13 µM (inactive) | 1.95 µM (inactive) | 1.65 µM (inactive) | 2 µM (inactive) | 1.83 µM (inactive) | 1.9 µM (inactive) | 1.66 µM (inactive) | 15.7 µM (inactive) | 1.75 µM (inactive)
